Measurements reported in EP3400938B1, “NOVEL N-(1,2,3-TRIAZOLMETHYL)ISATIN AND N-(1,2,3-TRIAZOLMETHYL)-3-HYDROXY-3-ARYLOXINDOLES WITH CYTOTOXIC AND ANTI-TUMOR ACTIVITY” (Universidade de Évora, priority 2017, dated 2018).
Like-named read-outs stand apart in the source and are kept apart here.

Key:
[1] = tested on: SW480 colon adenocarcinoma cells; conditions: bench-mark value from Xu et al. 2003, SW480; cited from earlier work
[2] = tested on: SW480 colon adenocarcinoma cells; assay: 24 h MTT cytotoxicity assay, SW480 cell line; assay type: cell-based; conditions: 24h exposure time
Description: One of the main strategies for the treatment of cancer is chemotherapy (De Santis et al. 2014). There are two main factors that made the development of new chemotherapeutic agents crucial: the side effects of the current anticancer drugs used in the clinic and the appearance of tumour cell resistance. A first step facing at tackling this challenging goal is the evaluation of the cytotoxic activity of the new synthesized drugs. In our case, cytotoxicity was evaluated by means of the antiproliferative assay MTT, which is a high-throughput method widely used for the screening of new drugs that is based on the ability of the mitochondrial dehydrogenases to reduce a water soluble yellow dye, namely 3-(4,5-dimethylthiazol-2-yl)-2,5-diphenyl tetrazolium bromide, to form a water insoluble blue formazan (McCauley et al., 2013). […] The best inhibition was obtained with (S)-2 (Table 2, entry 2). Overall the (S) series gave better inhibition results. Table 2 IC50 values obtained from MTT assay with a 24h exposure time
Biological Screening Studies 24 h MTT Cytototoxicity Assay - SW480 cell line
Approximately 5 × 10^3 SW480 colon adenocarcinoma cells were cultured in 200 µl culture medium per well (DMEM medium), supplemented with 10% newborn calf serum and 1% amphotericin-penicillin-streptomycin solution in 96-well plates and incubated at 37 °C under a 5% CO2 atmosphere. The cells were grown for 24h and then exposed to different concentrations of the tested drugs (dissolved in culture medium) for 24h. Hydrogen peroxide was used as a positive control. The cells were washed with the culture medium, incubated with MTT (500 µg/ml) for a further period of 3 hours. At the end of the incubation, the medium was removed, then carefully washed with PBS and 200 µl DMSO were added to each well. Absorbance was read at 570 nm in a microplate reader. Four replicates per dose were included. The IC50 values, that is, the concentrations which produced 50% inhibition of cell viability were calculated from MTT data using the GraphPadPrism Software Inc. (version 6.01) (USA).

SU-DHL-2 = assay: 72 h MTT proliferation assay on lymphoma cell lines (SU-DHL-2); assay type: cell-based; conditions: SU-DHL-2 (ABC-DLBCL), 72h exposure time, read-out: ABC-DLBC cell lines IC50, SU-DHL-2
Description: (§1) A set of ten compounds was tested against four lymphoma cell lines belonging to Germinal Center B-cell-like Diffuse Large B-Cell lymphoma, GCB-DLBCL and Activated B-Cell-like Diffuse Large B-Cell lymphoma, ABC-DLBCL (Table 3). Compounds were tested in triplicates as single agents, for 72 hours by using a large range of concentrations. […] In particular, ISATIN-BENZYL is the most promising one reaching IC50s of 1 and 5 µM in the OCI-LY-10 and SU-DHL-2 cell lines (Table 3). Table 3. IC50 values obtained from MTT assay with a 72h exposure time on lymphoma cell lines.
(§2) 72 h MTT assay on lymphoma cell lines.
(§3) Compounds were dissolved in dimethyl sulphoxide (DMSO) to obtain a stock concentration of 20 mM.
(§4) Cell lines. The panel of lymphoma cell lines comprised models derived from diffuse large B-cell lymphoma (n. 4) cell lines derived from DLBCL of the germinal center B-cell type (GCB-DLBCL), such as VAL and DOHH-2, and derived of the activated B-cell type (ABC-DLBCL) such as OCI-LY-10 and SU-DHL-2.
(§5) Cells were seeded in 96-well plates (non-tissue culture treated) at a density of 10,000 cells for all cell lines. Each compound was dissolved in dimethyl sulphoxide (DMSO). For treatment of cells, compounds were serially diluted in the appropriate tissue culture medium, at a range of 20 µM - 19 nM following a 1:2 dilution factor and added to cells (in three replicates). Cells were incubated for 72 hours at 37 °C, 5% CO2. DMSO alone was added to negative control (untreated) cells. Wells containing medium only were included on each plate and served as blanks for absorbance readings. MTT (Sigma-Aldrich Chemie GmbH, Buchs, Switzerland) was prepared as a 5 mg/ml stock in PBS and filter-sterilized. MTT solution (22µL) was added to each well and tissue culture plates were incubated at 37°C for 4 hours. Cells were then lysed with 25% SDS lysis buffer and absorbance was read at 570 nm using an AD340 plate reader (Beckman Coulter International SA, Switzerland). Absorbance values were expressed in percentage of proliferating cells in comparison with control cells (control corresponds to 100%).

DOHH-2 = assay: 72 h MTT proliferation assay on lymphoma cell lines (DOHH-2); assay type: cell-based; conditions: DOHH-2 (GCB-DLBCL), 72h exposure time, read-out: GCB-DLBC cell lines IC50, DOHH-2
Description: as §1, §2, §3, §4, §5

OCI-LY-10 = assay: 72 h MTT proliferation assay on lymphoma cell lines (OCI-LY-10); assay type: cell-based; conditions: 72h exposure time, read-out: ABC-DLBC cell lines IC50, OCI-LY-10
Description: as §1, §2, §3, §4, §5

VAL = assay: 72 h MTT proliferation assay on lymphoma cell lines (VAL); assay type: cell-based; conditions: VAL (GCB-DLBCL), 72h exposure time, read-out: GCB-DLBC cell lines IC50, VAL
Description: as §1, §2, §3, §4, §5

[3] = Homo sapiens, OCI-Ly10, OCI-LY-10 (ABC-DLBCL)

COc1cccc2c1C(=O)c1c(O)c3c(c(O)c1C2=O)C[C@@](O)(C(=O)CO)C[C@@H]3O[C@H]1C[C@H](N)[C@H](O)[C@H](C)O1 [Dox, doxorubicin]
IC50 [1]: 65.3 µM

O=C1N(Cc2cn(Cc3ccccc3)nn2)c2ccccc2C1(O)c1ccc(F)cc1 [(R) -3, 1-((1-Benzyl-1H-1,2,3-triazol-4-yl)methyl)-3-(4-fluorophenyl)-3-hydroxyindolin-2-one]
IC50 ([2]; Homo sapiens, SW480, 24 h): 49.1 µM
IC50 (SU-DHL-2; Homo sapiens, SU-DHL-2, 72 h): > 20 µM
IC50 (DOHH-2; Homo sapiens): > 20 µM
IC50 (OCI-LY-10; [3]): > 20 µM
IC50 (VAL): > 20 µM

COc1ccc(C2(O)C(=O)N(Cc3cn(Cc4ccccc4)nn3)c3ccccc32)cc1 [(S) -4, 1-((1-Benzyl-1H-1,2,3-triazol-4-yl)methyl)-3-hydroxy-3-(4-methoxyphenyl)indolin-2-one]
IC50 [2]: 48.9 µM

Cc1ccc(C2(O)C(=O)N(Cc3cn(Cc4ccccc4)nn3)c3ccccc32)cc1 [(S) -8, 1-((1-Benzyl-1H-1,2,3-triazol-4-yl)methyl)-3-hydroxy-3-p-tolylindolin-2-one]
IC50 ([2]; Homo sapiens, SW480, 24 h): > 200 µM

O=C1N(Cc2cn(Cc3ccccc3)nn2)c2ccccc2C1(O)c1ccsc1 [(S) -5, 1-((1-Benzyl-1H-1,2,3-triazol-4-yl)methyl)-3-hydroxy-3-(thiophen-3-yl)indolin-2-one]
IC50 [2]: 33 µM

O=C1N(Cc2cn(Cc3ccccc3)nn2)c2ccccc2C1(O)c1cccc(O)c1 [(R) -6, 1-((1-Benzyl-1H-1,2,3-triazol-4-yl)methyl)-3-hydroxy-3-(3-hydroxyphenyl)indolin-2-one]
IC50 [2]: 210 µM

O=C1N(Cc2cn(Cc3ccccc3)nn2)c2ccccc2C1(O)c1ccc(F)cc1 [(S) -3, 1-((1-Benzyl-1H-1,2,3-triazol-4-yl)methyl)-3-(4-fluorophenyl)-3-hydroxyindolin-2-one]
IC50 [2]: 25.9 µM
IC50 (SU-DHL-2): > 20 µM
IC50 (DOHH-2): > 20 µM
IC50 (OCI-LY-10; OCI-LY-10 (ABC-DLBCL)): > 20 µM
IC50 (VAL): > 20 µM

O=C1N(Cc2cn(Cc3ccccc3)nn2)c2ccc(Br)cc2C1(O)c1ccccc1 [(R) -7, 1-((1-Benzyl-1H-1,2,3-triazol-4-yl)methyl)-5-bromo-3-hydroxy-3-phenylindolin-2-one]
IC50 ([2]; Homo sapiens, SW480, 24 h): 42.5 µM

O=C1N(Cc2cn(Cc3ccccc3)nn2)c2ccccc2C1(O)c1ccsc1 [(R) -5, 1-((1-Benzyl-1H-1,2,3-triazol-4-yl)methyl)-3-hydroxy-3-(thiophen-3-yl)indolin-2-one]
IC50 [2]: 86.4 µM
IC50 (SU-DHL-2; Homo sapiens, SU-DHL-2, 72 h): > 20 µM
IC50 (DOHH-2; Homo sapiens): > 20 µM
IC50 (OCI-LY-10; [3]): > 20 µM
IC50 (VAL): > 20 µM

O=C1N(Cc2cn(Cc3ccccc3)nn2)c2ccccc2C1(O)c1ccccc1 [(R) -1, 1-((1-Benzyl-1H-1,2,3-triazol-4-yl)methyl)-3-hydroxy-3-phenylindolin-2-one]
IC50 ([2]; Homo sapiens, SW480, 24 h): 82.6 µM
IC50 (SU-DHL-2; Homo sapiens, SU-DHL-2, 72 h): > 20 µM
IC50 (DOHH-2; Homo sapiens): > 20 µM
IC50 (OCI-LY-10; [3]): > 20 µM
IC50 (VAL): > 20 µM

CCCCn1cc(CN2C(=O)C(O)(c3ccccc3)c3ccccc32)nn1 [(S) -9, 1-((1-Butyl-1H-1,2,3-triazol-4-yl)methyl)-3-hydroxy-3-phenylindolin-2-one]
IC50 ([2]; Homo sapiens, SW480, 24 h): > 200 µM

O=C1C(=O)N(Cc2cn(Cc3ccccc3)nn2)c2ccccc21 [ISATIN-MENTHOL, 1-((1-Benzyl-1H-1,2,3-triazol-4-yl)methyl)indoline-2,3-dione]
IC50 ([2]; Homo sapiens): 13.7 µM
IC50 (SU-DHL-2; Homo sapiens): 15 µM
IC50 (DOHH-2; Homo sapiens): > 20 µM
IC50 (OCI-LY-10; [3]): 7 µM
IC50 (VAL): > 20 µM

O=C1N(Cc2cn(Cc3ccccc3)nn2)c2ccccc2C1(O)c1cccc(O)c1 [(S) -6, 1-((1-Benzyl-1H-1,2,3-triazol-4-yl)methyl)-3-hydroxy-3-(3-hydroxyphenyl)indolin-2-one]
IC50 [2]: 52.8 µM

O=C1N(Cc2cn(Cc3ccccc3)nn2)c2ccccc2C1(O)c1ccc2ccccc2c1 [(R) -2, 1-((1-Benzyl-1H-1,2,3-triazol-4-yl)methyl)-3-hydroxy-3-(naphthalen-2-yl)indolin-2-one]
IC50 ([2]; Homo sapiens, SW480, 24 h): 18.6 µM
IC50 (SU-DHL-2; Homo sapiens, SU-DHL-2, 72 h): > 20 µM
IC50 (DOHH-2; Homo sapiens): > 20 µM
IC50 (OCI-LY-10; [3]): > 20 µM
IC50 (VAL): > 20 µM

CC(C)[C@H]1CC[C@H](C)C[C@H]1n1cc(CN2C(=O)C(=O)c3ccccc32)nn1 [ISATIN-BENZYL, 1-((1-((1R,2R,5S)-2-Isopropyl-5-methylcyclohexyl)-1H-1,2,3-triazol-4-yl)methyl)indoline-2,3-dione]
IC50 ([2]; Homo sapiens): 84.4 µM
IC50 (SU-DHL-2; Homo sapiens): 5 µM
IC50 (DOHH-2; Homo sapiens): > 20 µM
IC50 (OCI-LY-10; [3]): 1 µM
IC50 (VAL): > 20 µM

O=C1N(Cc2cn(Cc3ccccc3)nn2)c2ccccc2C1(O)c1ccccc1 [(S) -1, 1-((1-Benzyl-1H-1,2,3-triazol-4-yl)methyl)-3-hydroxy-3-phenylindolin-2-one]
IC50 [2]: 63 µM

O=C1N(Cc2cn(Cc3ccccc3)nn2)c2ccccc2C1(O)c1ccc2ccccc2c1 [(S) -2, 1-((1-Benzyl-1H-1,2,3-triazol-4-yl)methyl)-3-hydroxy-3-(naphthalen-2-yl)indolin-2-one]
IC50 [2]: 12.8 µM
IC50 (SU-DHL-2): 19 µM
IC50 (DOHH-2): > 20 µM
IC50 (OCI-LY-10; OCI-LY-10 (ABC-DLBCL)): > 20 µM
IC50 (VAL): > 20 µM

COc1ccc(C2(O)C(=O)N(Cc3cn(Cc4ccccc4)nn3)c3ccccc32)cc1 [(R) -4, 1-((1-Benzyl-1H-1,2,3-triazol-4-yl)methyl)-3-hydroxy-3-(4-methoxyphenyl)indolin-2-one]
IC50 ([2]; Homo sapiens, SW480, 24 h): 76.4 µM

O=C1N(Cc2cn(Cc3ccccc3)nn2)c2ccc(Br)cc2C1(O)c1ccccc1 [(S) -7, 1-((1-Benzyl-1H-1,2,3-triazol-4-yl)methyl)-5-bromo-3-hydroxy-3-phenylindolin-2-one]
IC50 [2]: 34.1 µM
IC50 (SU-DHL-2; Homo sapiens, SU-DHL-2, 72 h): 19 µM
IC50 (DOHH-2; Homo sapiens): 19 µM
IC50 (OCI-LY-10; [3]): > 20 µM
IC50 (VAL): > 20 µM
